Calls of active or inactive are those of the source. The rule behind the calls is not given here.
Test system: not listed separately
Assay: Cytotoxicity against human KB-3-1 cells after 96 hrs by microculture tetrazolium assay
Assay type: functional, cell-based
Details: KB 3-1, 96 h

| Compound | IC50 |
| --- | --- |
| COc1ccc(/C=C/C(=O)O[C@@H]2[C@H](O)c3c(cc(OC)c4c(=O)c5cc6ccccc6cc5n(C)c34)OC2(C)C)cc1 (racemic) | 30 nM |
| COc1cc2c(c3c1c(=O)c1cc4ccccc4cc1n3C)[C@@H](OC(C)=O)[C@@H](OC(=O)/C=C/c1ccc(Cl)cc1Cl)C(C)(C)O2 (racemic) | 90 nM |
| COc1ccc(/C=C/C(=O)O[C@@H]2[C@H](OC(C)=O)c3c(cc(OC)c4c(=O)c5cc6ccccc6cc5n(C)c34)OC2(C)C)cc1 (racemic) | 240 nM |
| COc1cc2c(c3c1c(=O)c1cc4ccccc4cc1n3C)[C@@H](OC(C)=O)[C@@H](OC(=O)/C=C/c1ccccc1)C(C)(C)O2 (racemic) | 150 nM |
| COc1cc2c(c3c1c(=O)c1cc4ccccc4cc1n3C)[C@@H](OC(C)=O)[C@@H](OC(=O)/C=C/c1cccc(C(F)(F)F)c1)C(C)(C)O2 (racemic) | 60 nM |
| COc1cc2c(c3c1c(=O)c1cc4ccccc4cc1n3C)[C@@H](OC(C)=O)[C@@H](OC(=O)/C=C/c1ccc(Cl)cc1)C(C)(C)O2 (racemic) | 70 nM |
| COc1cc2c(c3c1c(=O)c1cc4ccccc4cc1n3C)[C@@H](OC(C)=O)[C@@H](OC(=O)/C=C/c1ccc(Br)cc1)C(C)(C)O2 (racemic) | 80 nM |
| COc1cc2c(c3c1c(=O)c1cc4ccccc4cc1n3C)[C@@H](OC(C)=O)[C@@H](OC(=O)/C=C/c1ccc(C(F)(F)F)cc1)C(C)(C)O2 (racemic) | 300 nM |
| COc1cc2c(c3c1c(=O)c1cc4ccccc4cc1n3C)[C@@H](OC(C)=O)[C@@H](OC(=O)/C=C/c1cccc(Br)c1)C(C)(C)O2 (racemic) | 120 nM |
| COc1cc2c(c3c1c(=O)c1cc4ccccc4cc1n3C)[C@@H](O)[C@@H](OC(=O)/C=C/c1ccc(Cl)cc1)C(C)(C)O2 (racemic) | 8 nM |
| COc1cc2c(c3c1c(=O)c1cc4ccccc4cc1n3C)[C@@H](O)[C@@H](OC(=O)/C=C/c1cccc(C(F)(F)F)c1)C(C)(C)O2 (racemic) | 15 nM |
| COc1cc2c(c3c1c(=O)c1cc4ccccc4cc1n3C)[C@@H](OC(C)=O)[C@@H](OC(C)=O)C(C)(C)O2 (racemic) | 100 nM |
| COc1cc2c(c3c1c(=O)c1cc4ccccc4cc1n3C)[C@@H](OC(C)=O)[C@@H](OC(=O)/C=C/c1ccc(Cl)c(Cl)c1)C(C)(C)O2 (racemic) | 50 nM |
| COc1cc2c(c3c1c(=O)c1cc4ccccc4cc1n3C)[C@@H](O)[C@@H](OC(=O)/C=C/c1ccc(Br)cc1)C(C)(C)O2 (racemic) | 6 nM |

Test system: not listed separately
Assay: Binding affinity to pBS plasmid 117 base-pair DNA fragment assessed as half life of DNA alkylation by gel shift assay
Details: not given

| Compound | T1/2 |
| --- | --- |
| COc1cc2c(c3c1c(=O)c1cc4ccccc4cc1n3C)[C@@H](O)[C@@H](OC(=O)/C=C/c1ccc(Cl)cc1)C(C)(C)O2 (racemic) | 1 h |
| COc1cc2c(c3c1c(=O)c1cc4ccccc4cc1n3C)[C@@H](O)[C@@H](OC(=O)/C=C/c1ccc(Br)cc1)C(C)(C)O2 (racemic) | 1 h |

Other lines, results leading:

| T1/2 | Compound |
| --- | --- |
| 1.5 h | COc1cc2c(c3c1c(=O)c1cc4ccccc4cc1n3C)[C@@H](OC(C)=O)[C@@H](OC(=O)/C=C/c1ccccc1)C(C)(C)O2 (racemic) |
| 6 h | COc1cc2c(c3c1c(=O)c1cc4ccccc4cc1n3C)[C@@H](OC(C)=O)[C@@H](OC(=O)/C=C/c1ccc(Cl)cc1)C(C)(C)O2 (racemic) |
| 6 h | COc1cc2c(c3c1c(=O)c1cc4ccccc4cc1n3C)[C@@H](OC(C)=O)[C@@H](OC(=O)/C=C/c1ccc(Br)cc1)C(C)(C)O2 (racemic) |
| 0.5 h | COc1cc2c(c3c1c(=O)c1cc4ccccc4cc1n3C)[C@@H](OC(C)=O)[C@@H](OC(C)=O)C(C)(C)O2 (racemic) |
| > 24 h | COc1cc2c(c3c1c(=O)c1cc4ccccc4cc1n3C)[C@@H](OC(C)=O)[C@@H](OC(=O)/C=C/c1ccc(Cl)c(Cl)c1)C(C)(C)O2 (racemic) |

Test system: L1210
Assay: Cytotoxicity against mouse L1210 cells after 48 hrs by microculture tetrazolium assay
Assay type: functional, cell-based
Details: Mus musculus, L1210, 48 h; read-out: IC50

| Compound | IC50 |
| --- | --- |
| COc1ccc(/C=C/C(=O)O[C@@H]2[C@H](O)c3c(cc(OC)c4c(=O)c5cc6ccccc6cc5n(C)c34)OC2(C)C)cc1 (racemic) | 130 nM |
| COc1cc2c(c3c1c(=O)c1cc4ccccc4cc1n3C)[C@@H](OC(C)=O)[C@@H](OC(=O)/C=C/c1ccc(Cl)cc1Cl)C(C)(C)O2 (racemic) | 600 nM |
| COc1ccc(/C=C/C(=O)O[C@@H]2[C@H](OC(C)=O)c3c(cc(OC)c4c(=O)c5cc6ccccc6cc5n(C)c34)OC2(C)C)cc1 (racemic) | 1200 nM |
| COc1cc2c(c3c1c(=O)c1cc4ccccc4cc1n3C)[C@@H](OC(C)=O)[C@@H](OC(=O)/C=C/c1ccccc1)C(C)(C)O2 (racemic) | 1100 nM |
| COc1cc2c(c3c1c(=O)c1cc4ccccc4cc1n3C)[C@@H](OC(C)=O)[C@@H](OC(=O)/C=C/c1cccc(C(F)(F)F)c1)C(C)(C)O2 (racemic) | 700 nM |
| COc1cc2c(c3c1c(=O)c1cc4ccccc4cc1n3C)[C@@H](OC(C)=O)[C@@H](OC(=O)/C=C/c1ccc(Cl)cc1)C(C)(C)O2 (racemic) | 500 nM |
| COc1cc2c(c3c1c(=O)c1cc4ccccc4cc1n3C)[C@@H](OC(C)=O)[C@@H](OC(=O)/C=C/c1ccc(Br)cc1)C(C)(C)O2 (racemic) | 700 nM |
| COc1cc2c(c3c1c(=O)c1cc4ccccc4cc1n3C)[C@@H](OC(C)=O)[C@@H](OC(=O)/C=C/c1ccc(C(F)(F)F)cc1)C(C)(C)O2 (racemic) | 1500 nM |
| COc1cc2c(c3c1c(=O)c1cc4ccccc4cc1n3C)[C@@H](OC(C)=O)[C@@H](OC(=O)/C=C/c1cccc(Br)c1)C(C)(C)O2 (racemic) | 600 nM |
| COc1cc2c(c3c1c(=O)c1cc4ccccc4cc1n3C)[C@@H](O)[C@@H](OC(=O)/C=C/c1ccc(Cl)cc1)C(C)(C)O2 (racemic) | 40 nM |
| COc1cc2c(c3c1c(=O)c1cc4ccccc4cc1n3C)[C@@H](O)[C@@H](OC(=O)/C=C/c1cccc(C(F)(F)F)c1)C(C)(C)O2 (racemic) | 100 nM |
| COc1cc2c(c3c1c(=O)c1cc4ccccc4cc1n3C)[C@@H](OC(C)=O)[C@@H](OC(C)=O)C(C)(C)O2 (racemic) | 790 nM |
| COc1cc2c(c3c1c(=O)c1cc4ccccc4cc1n3C)[C@@H](OC(C)=O)[C@@H](OC(=O)/C=C/c1ccc(Cl)c(Cl)c1)C(C)(C)O2 (racemic) | 400 nM |
| COc1cc2c(c3c1c(=O)c1cc4ccccc4cc1n3C)[C@@H](O)[C@@H](OC(=O)/C=C/c1ccc(Br)cc1)C(C)(C)O2 (racemic) | 50 nM |

Test system: MC-38
Assay: Antitumor activity against mouse Colon 38 cells xenografted B6D2F1 mouse assessed as tumor free state at 4 mg/kg, iv administered twice daily on day 90 post drug dose
Assay type: functional, organism-based
Parameters: dose 4 mg/kg
Details: not given

| Compound | Activity |
| --- | --- |
| COc1cc2c(c3c1c(=O)c1cc4ccccc4cc1n3C)[C@@H](OC(C)=O)[C@@H](OC(C)=O)C(C)(C)O2 (racemic) | Active |

Test system: MC-38
Assay: Antitumor activity against mouse Colon 38 cells xenografted B6D2F1 mouse assessed as inhibition of tumor growth at 4 mg/kg, iv administered twice daily
Assay type: functional
Details: not given

| Compound | inhibition in vivo at 4 mg/kg |
| --- | --- |
| COc1cc2c(c3c1c(=O)c1cc4ccccc4cc1n3C)[C@@H](OC(C)=O)[C@@H](OC(C)=O)C(C)(C)O2 (racemic) | 99% |
| COc1cc2c(c3c1c(=O)c1cc4ccccc4cc1n3C)[C@@H](OC(C)=O)[C@@H](OC(=O)/C=C/c1ccc(Cl)c(Cl)c1)C(C)(C)O2 (racemic) | 84% |

Reference: ChEMBL document CHEMBL1152763, “Synthesis, cytotoxic activity, and DNA binding properties of antitumor cis-1,2-dihydroxy-1,2-dihydrobenzo[b]acronycine cinnamoyl esters” (Bioorg Med Chem, 2009)
